From paper PMC9569954, “The Antidepressant-like Activity, Effects on Recognition Memory Deficits, Bioavailability, and Safety after Chronic Administration of New Dual-Acting Small Compounds Targeting Neuropsychiatric Symptoms in Dementia” (International Journal of Molecular Sciences, 2022)

Assays:
[1] = system: (+)-MK-801-induced memory deficits; test: Novel object recognition (NOR) test in (+)-MK-801 treated rats; assay type: in vivo, male Wistar rats; conditions: rat; for Total Exploratory Time in T2 Session: vehicle 49.67 ± 4.63
Protocol: The rats were injected with the respective compounds for 21 consecutive days at the minimum active doses selected previously, based on acute treatment and assessment in the NOR test. The protocol for the NOR test was adapted from the original work and the test was performed according to the previously described protocol, 24 h after the last injection of the investigated compound. The discrimination index (DI) was calculated according to the formula:(7) DI=(EB−EA)/(EA+EB) where EB is the exploration time of novel object during the T2 session and EA is the exploration time of […].
PQA-AZ4 and PQA-AZ-6 were administered for 60 and 30 min, respectively, before the T1 phase (the familiarization phase). MK-801 was used to attenuate learning and was administered at a dose of 0.1 mg/kg (i.p.) 30 min before the familiarization phase (T1). The total exploration time in T2 was used to determine the influence of the treatment on the exploratory activity of the animals.

[2] = Ferric-reducing antioxidant power (FRAP) of serum; assay type: in vivo, rats; conditions: rat, 1 mg/kg/day i.p., 21 days
Protocol: The assay was performed according to Benzie and Strain [46] with some modifications. The FRAP working solution was prepared before the start of the analysis, namely, 0.3 mol acetate buffer (pH 3.6), 0.01 mol TPTZ (2,4,6-tripyridyl-s-triazine; Sigma-Aldrich) in 0.04 mol HCl (POCh, Gliwice, Poland), and 0.02 M FeCl3×6H2O in water (iron (III) chloride hexahydrate; Chempur, Piekary Śląskie, Poland) were mixed in a volumetric ratio of 10:1:1 and protected from light.
Next, 20 µL of the plasma sample tested, brain homogenate, or FeSO4×7H2O solution was mixed with 180 µL of the FRAP working solution. The mixtures obtained were incubated at 37 °C for 30 min and their absorbance was measured at 593 nm. FeSO4×7H2O (100–1000 µM/L) was used for a calibration curve. Deionized water with FRAP solution was used as a blank.

[3] = Serum glucose, triglyceride and cholesterol concentrations; assay type: in vivo, rats; conditions: rat, 1 mg/kg/day i.p., 21 days
Protocol: The blood samples were collected immediately after decapitation and then centrifuged at 600× g […], 4 °C, to separate the plasma. The blood was used to determine metabolic parameters such as glucose, cholesterol, and triglyceride levels, together with liver enzymatic activity.
Standard enzymatic spectrophotometric tests (Biomaxima S.A., Lublin, Poland) were used to determine glucose, cholesterol, and triglyceride levels in the serum. In the presence of an appropriate enzyme, the substrate was converted to a colored compound. Absorbance was measured at a wavelength of 500 nm.

Body weight measurement = assay type: in vivo, rats; conditions: rat, 20-day administration, 1 mg/kg/day i.p.
Protocol: Body weight was measured every second day, immediately before the administration of drugs.

rats [4] = test: 18-hour spontaneous activity monitoring; assay type: in vivo, male Wistar rats; conditions: rat, after 20-day administration, 1 mg/kg/day i.p., 18-h monitoring
Protocol: Spontaneous activity was measured on the 20th day of the treatment with a special, innovative, radio-frequency identification system (RFID-system), TraffiCage (TSE-Systems, Bad Homburg, Germany). The test was conducted according to the method described previously. The animals had RFID transmitters implanted subcutaneously, which tracked the time they spent in different areas of the cage.

Bdnf gene = Bdnf gene expression in brain structures (RT-qPCR, ex vivo); set-up: species or system rats; conditions: rat, 1 mg/kg/day i.p., 21 days
Protocol: Animals in all treatment groups were sacrificed by rapid decapitation immediately after the behavioral tests, when the brains and blood samples were collected. For quantitative reverse transcription-polymerase chain reaction (RT-qPCR), the brains of rats were rapidly removed, and the hippocampus and prefrontal cortex were dissected on an ice-cold glass plate. The tissues were frozen in dry ice and stored at −80 °C until required.
The total RNA was extracted from tissues using an RNA Isolation kit (Thermo Fisher Scientific, Rockford, IL, USA), and its concentration was normalized to 20 ng/μL. Reverse transcription was performed with a High-Capacity Reverse Transcription Kit (Life Technologies, Grand Island, NY, USA). A qPCR fast 96-well reaction plate was used for the process with TaqMan Gene Expression assay (Life Technologies) for brain-derived neurotrophic factor Bdnf (Rn02531967_s1) on an Applied Biosystems® 7500 Fast Real-Time PCR Instrument (Applied Biosystems, Foster City, CA, USA), according to the manufacturer’s protocol. Glyceraldehyde-3-phosphate dehydrogenase, Gapdh (Rn01775763_g1), was selected as endogenous control, based on the pilot experiment. Relative normalized expression was calculated using the ΔΔCq method.

rats [5] = test: Forced swim test (FST); assay type: in vivo, male Wistar rats; conditions: rat
Protocol: The rats were injected for 21 consecutive days at a dose of 1 mg/kg, similar to the dose used in acute treatment, as per data presented in Supplementary Materials (Table S1). The FST was conducted according to the method of Porsolt. On the first day of the experiment, the animals were gently placed individually for 15 min in Plexiglas cylinders (40 cm high, 18 cm in diameter) containing 15 cm of water maintained at 23–25 °C. On removal from water, the rats were placed for 30 min in a Plexiglas box under a 60 W bulb to dry. On the following day (24 h later), the rats were replaced in the cylinder and the total duration of immobility was recorded during the whole 5 min test period. Immobility was assigned when no additional activity was observed other than that necessary to keep the rat’s head above the water. Fresh water was used for each animal.
FST after acute administration of the investigated compounds
Rats were injected 60 min before the test at a dose of 1 mg/kg. FST was carried out according to the method of Porsolt, and the same procedure was used for chronic treatment.
Table S1. Effect of acute treatment of PQA-AZ4, PQA-AZ6, and PQ-10 on the immobility time in the […]
Compound (mg/kg) Immobility time (s)
Compounds were injected i.p. 60 min before the test. Values represent the means ± SEM of immobility in the FST during a 5 min test session. The data were analyzed using one -way ANOVA, followed by Bonferroni‘s post hoc test; NS = nonsignificant; N=7-8.

[6] = chronic 1 mg/kg/day i.p., 21 days

| Structure (SMILES) | Total Exploratory Time in T2 Session ([1]; 0.3 mg/kg/day i.p. 21 days + (+)-MK-801 0.1 mg/kg) | effect on (+)-MK-801-induced recognition memory deficits (discrimination index) ([1]; 0.3 mg/kg/day i.p., 21 days, (+)-MK-801 0.1 mg/kg i.p.) | total antioxidant activity of serum (Fe2+ formed, FRAP) vs control [2] | serum glucose concentration vs vehicle [3] | serum triglycerides concentration vs vehicle [3] | total cholesterol concentration vs vehicle [3] | weight gain vs vehicle (Body weight measurement) | spontaneous activity vs vehicle (rats [4]) | Bdnf expression upregulation vs control, hippocampus (Bdnf gene; hippocampus (Hipp)) | Bdnf expression upregulation vs control, prefrontal cortex (Bdnf gene; prefrontal cortex (PFX)) | Immobility time (rats [5]; acute 1 mg/kg i.p., 60 min before test, 5 min session, vehicle 255.9 ± 8.6) [s] | antidepressant-like activity in FST (rats [5]; [6]) | decrease of immobility vs. control group in FST (rats [5]; [6]) | Total Exploratory Time in T2 Session ([1]; (+)-MK-801 0.1 mg/kg i.p. + vehicle) [s] |
| --- | --- | --- | --- | --- | --- | --- | --- | --- | --- | --- | --- | --- | --- | --- |
| COc1cc2ncnc(N3CC[C@@H](Oc4cnc5ccccc5n4)C3)c2cc1OC [PQ-10, 6,7-dimethoxy-4-[(3R)-3-(2-quinoxalinyloxy)-1-pyrrolidinyl]-quinazoline, reference compound] | 47.13 ± 5.69 F(2,18) = 0.3006; NS s | restored recognition memory deficits | comparable | did not significantly change | did not significantly change | slight but statistically significant (p < 0.05) increase | did not result in a change | No significant effect | about 17 fold | about 34 fold | 249.1 ± 10.4 | showed antidepressant-like properties | about 9% |  |
| C[C@]12N[C@H](Cc3ccccc31)c1ccccc12 [(+)-MK-801, Dizocilpine, reference compound] |  |  |  |  |  |  |  |  |  |  |  |  |  | 44.00 ± 4.05 |
